Data published in patent US5026554A, “Method of inhibiting fungal growth using squalene synthetase inhibitors” (Merck & Co., Inc., priority 1990, dated 1991).
pIC50: −log10 of the molar value. Converted amounts (≈) assume the structure as drawn.

What was measured:
A. nidulans R21 = assay: antifungal MIC, microtiter dilution assay, filamentous fungi; assay type: cell-based; conditions: Aspergillus nidulans, 42 hours, 28° C., read-out: Minimum Inhibitory Concentration
Method: (§1) The compounds are particularly active towards filamentous fungi and yeasts including Candida albicans and Cryptococcus neoformans. The sensitivity of filamentous fungi and yeast was determined using inhibitor dilution assays in microtiter format. The compounds were dissolved in DMSO at 2 mg/ml and serially diluted in 0.1M phosphate buffer, pH 7.0 in the microtiter dish from 100 to 0.006 μg/ml. A standardized spore suspension for testing the filamentous fungi was prepared by inoculating Antibiotic Medium #3 containing 1.5% agar with spores such that 1.5×10^3 colony forming units were added per well. The microtiter wells were filled with 50 μl of buffer containing compound and 50 μl of inoculated medium.
(§2) The sensitivity of yeasts was determined by inoculating yeast nitrogen base containing 1% dextrose (YNB/G) with aliquots of an overnight yeast culture grown in Yeast Morphology (YM) media at 35° C. and diluting in YNB/G to yield a final concentration of 1.5-7.5×10^3 colony forming units/well. To test the sensitivity of yeast, compound was solubilized in 10 percent aqueous DMSO at 2.56 mg/ml. The compound was diluted serially in YNB/G from 128 to 0.06 μg/ml and further diluted 1:10 in YNB/G. The wells were filled with 150 μl of media containing drug. […]

Aspergillus flavus MF383 = assay: as above; assay type: cell-based; conditions: 42 hours, 28° C., read-out: Minimum Inhibitory Concentration
Method: as §1, §2

Squalene Synthetase = molecular target: T1, Squalene Synthetase (Rattus norvegicus, UniProt Q02769); assay: Squalene Synthetase Assay (intrinsic squalene synthetase inhibitory activity); assay type: biochemical; conditions: rat liver microsomes, [4-14C]farnesyl-pyrophosphate, 30° C., 20 minutes
T1 construct: from tissue; host or cells: liver microsomes of male Charles River CD rats fed 0.1% lovastatin
T1 sequence (Q02769 1-416): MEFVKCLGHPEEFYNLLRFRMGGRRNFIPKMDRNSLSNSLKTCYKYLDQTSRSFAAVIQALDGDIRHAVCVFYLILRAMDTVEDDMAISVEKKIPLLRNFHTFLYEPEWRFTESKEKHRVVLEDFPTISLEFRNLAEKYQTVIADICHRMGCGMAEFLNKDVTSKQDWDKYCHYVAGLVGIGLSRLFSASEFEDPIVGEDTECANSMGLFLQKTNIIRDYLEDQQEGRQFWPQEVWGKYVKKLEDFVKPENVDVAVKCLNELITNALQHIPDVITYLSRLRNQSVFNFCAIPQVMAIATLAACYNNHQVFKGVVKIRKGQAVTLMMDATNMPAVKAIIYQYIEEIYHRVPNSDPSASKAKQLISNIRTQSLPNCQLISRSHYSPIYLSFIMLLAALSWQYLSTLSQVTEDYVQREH
Method: The intrinsic squalene synthetase inhibitory activity of representative compounds of this invention was measured by the standard in vitro protocol described below:
Male, Charles River CD rats (120 to 150 g) were fed a diet containing 0.1% lovastatin for 4 days. The livers from these rats were homogenized in 5 volumes (ml/g) of ice cold 50 mM HEPES (4-(2-hydroxyethyl)-1-piperazine-ethanesulfonic acid), 5 mM EDTA(ethylenediaminetetraacetic acid) pH 7.5 with a Potter-Elvehjem type tissue grinder. The homogenate was centrifuged twice at 20,000×g for 15 minutes at 4° C., discarding the pellet each time. The supernatant was then centrifuged at 100,000×g for 1 hour at 4° C. The resulting microsomal pellet was resuspended in a volume of the above homogenizing buffer equal to one-fifth the volume of the original homogenate. This microsomal preparation has a protein concentration of about 7 mg/ml. The microsomal suspensions were stored in aliquots at -70° C. Squalene synthetase activity in these aliquots is stable for at least several months.
Prenyl transferase was purified to use in the enzymatic synthesis of radiolabelled farnesyl pyrophosphate. Prenyl transferase was assayed by the method of Rilling (Methods in Enzymology 110, 125-129 (1985)) and a unit of activity is defined as the amount of enzyme that will produce 1 μ mole of farnesyl pyrophosphate per minute at 30° C. in the standard assay. […]

C. parapsilosis MY1010 = assay: antifungal MIC, microtiter dilution assay, yeast; assay type: cell-based; conditions: Lodderomyces parapsilosis, YNB/G, 24 to 48 hours, 35° C., read-out: Minimum Inhibitory Concentration
Method: as §1
(§3) The sensitivity of yeasts was determined by inoculating yeast nitrogen base containing 1% dextrose (YNB/G) with aliquots of an overnight yeast culture grown in Yeast Morphology (YM) media at 35° C. and diluting in YNB/G to yield a final concentration of 1.5-7.5×10^3 colony forming units/well. To test the sensitivity of yeast, compound was solubilized in 10 percent aqueous DMSO at 2.56 mg/ml. The compound was diluted serially in YNB/G from 128 to 0.06 μg/ml and further diluted 1:10 in YNB/G. The wells were filled with 150 μl of media containing drug. The minimum inhibitory concentration (MIC) is defined as the lowest concentration to prevent growth after an incubation for 42 hours, at 28° C. for the filamentous fungi and 24 to 48 hours, at 35° C. for the yeasts. Representative of the antifungal activity are the minimum inhibitory concentration data shown below.

C. tropicalis MY1012 = assay: antifungal MIC, microtiter dilution assay, yeast; assay type: cell-based; conditions: Candida tropicalis, YNB/G, 24 to 48 hours, 35° C., read-out: Minimum Inhibitory Concentration
Method: as §1, §3

Candida albicans MY1055 = assay: antifungal MIC, microtiter dilution assay, yeast; assay type: cell-based; conditions: YNB/G, 24 to 48 hours, 35° C., read-out: Minimum Inhibitory Concentration
Method: as §1, §3

Crypt. neoformans MY1051 = assay: antifungal MIC, microtiter dilution assay, yeast; assay type: cell-based; conditions: Cryptococcus neoformans, YNB/G, 24 to 48 hours, 35° C., read-out: Minimum Inhibitory Concentration
Method: as §1, §3

MIC (A. nidulans R21): 1.5 µg/mL (≈ 1.99 µM)
MIC (Aspergillus flavus MF383): 1.5 µg/mL (≈ 1.99 µM)
pIC50 (Squalene Synthetase): 8.05
MIC (C. parapsilosis MY1010): 8 µg/mL (≈ 10.6 µM)
MIC (C. tropicalis MY1012): 8 µg/mL (≈ 10.6 µM)
MIC (Candida albicans MY1055): 16 µg/mL (≈ 21.2 µM)
MIC (Crypt. neoformans MY1051): 1 µg/mL (≈ 1.32 µM)
SMILES: CC(=O)OC(CCCC12OC(C(=O)O)C(O)(C(=O)O)C(C(=O)O)(O1)C(OC(=O)CCC=CC(C)CCCc1ccccc1)C2O)C(C)Cc1ccccc1 (stereo not shown) [Compound A]
